This experiment deals with alkaline phosphatase activity in T47D cells. Briefly: Effects of progestins and antiprogestins on alkaline phosphatase activity in T47D cells. The class given is cell-based. To be noted: T47D alkaline phosphatase assay, antagonist mode in the presence of 1 nM progesterone, 24 hours; for IC50: Homo sapiens. As for the experimental part:
Effects of Progestins and Antiprogestins on Alkaline Phosphatase Activity in T47D Cells
This example was performed to identify progestins or antiprogestins by determining a compound's effect on alkaline phosphatase activity in T47D cells.
Culture medium: DMEM:F12 (1:1) (GIBCO, BRL) supplemented with 5% (v/v) charcoal stripped fetal bovine serum (not heat-inactivated), 100 U/mL penicillin, 100 μg/mL streptomycin, and 2 mM the GlutaMax™ reagent (GIBCO, BRL).
Alkaline phosphatase assay buffer: • I. 0.1M Tris-HCl, pH 9.8, containing 0.2% the Triton® X-100 reagent • II. 0.1 M Tris-HCl, pH 9.8, containing 4 mM p-nitrophenyl phosphate (Sigma).
Frozen T47D cells were thawed in a 37° C. water bath and diluted to 280,000 cells/mL in culture medium. To each well in a 96-well plate (Falcon, Becton Dickinson Labware), 180 μL of diluted cell suspension was added. Twenty μL of reference or test compounds diluted in the culture medium was then added to each well. When testing for progestin antagonist activity, reference antiprogestins or test compounds were added in the presence of 1 nM progesterone. The cells were incubated at 37° C. in a 5% CO2/humidified atmosphere for 24 hours. NOTE: For high throughput screening, one concentration of each compound was tested at 0.3 μg/mL. Based on an average molecular weight of 300 g/mol for the compounds in the library, the concentration was approximately 1 μM. Subsequently, active compounds were tested in dose response assays to determine EC50 and IC50.
At the end of treatment, the medium was removed from the plate. Fifty μL of assay buffer I was added to each well. The plates were shaken in a titer plate shaker for 15 minutes. 150 μL of assay buffer II was then added to each well. Optical density measurements were taken at 5 minute intervals for 30 minutes at a test wavelength of 405 nm.
For reference and test compounds, a dose response curve was generated for dose (X-axis) vs. the rate of enzyme reaction (slope) (Y-axis). Square root-transformed data was used for analysis of variance and nonlinear dose response curve fitting for both agonist and antagonist modes. Huber weighting was used to down-weight the effects of outliners. EC50 or IC50 values were calculated from the retransformed values. JMP software (SAS Institute, Inc.) was used for both one-way analysis of variance and non-4 linear dose response analysis in both single dose and dose response studies.
Progesterone and trimegestone are reference progestins known in the art and typically show an EC50 of about 0.1 nM to about 2.0 nM.

For orientation: IC50 means the midpoint of a concentration-inhibition curve.

For `CNS(=O)(=O)c1ccc(-c2ccc(C#N)n2C)cc1` [Example 1, 4-(5-cyano-1-methyl-1H-pyrrol-2-yl)-N-methylbenzenesulfonamide], the IC50 was 13.9 nM.
On to `CN(C)S(=O)(=O)c1ccc(-c2ccc(C#N)n2C)cc1` [Example 2, 4-(5-cyano-1-methyl-1H-pyrrol-2-yl)-N,N-dimethylbenzenesulfonamide], for which the IC50 amounted to 81.3 nM.
As for `CCNS(=O)(=O)c1ccc(-c2ccc(C#N)n2C)cc1` [Example 3, 4-(5-cyano-1-methyl-1H-pyrrol-2-yl)-N-ethylbenzenesulfonamide], the IC50 is 11.4 nM.
Consider `CCCNS(=O)(=O)c1ccc(-c2ccc(C#N)n2C)cc1` [Example 4, 4-(5-cyano-1-methyl-1H-pyrrol-2-yl)-N-propylbenzenesulfonamide], for which the IC50 is 23.8 nM.
For `CC(C)NS(=O)(=O)c1ccc(-c2ccc(C#N)n2C)cc1` [Example 5, 4-(5-cyano-1-methyl-1H-pyrrol-2-yl)-N-isopropylbenzenesulfonamide], the IC50 turned out to be 27.5 nM.
Take `CC(C)CNS(=O)(=O)c1ccc(-c2ccc(C#N)n2C)cc1` [Example 6, 4-(5-cyano-1-methyl-1H-pyrrol-2-yl)-N-isobutylbenzenesulfonamide]: the IC50 was determined as 47.9 nM.
Regarding `CCN(C)S(=O)(=O)c1ccc(-c2ccc(C#N)n2C)cc1` [Example 7, 4-(5-cyano-1-methyl-1H-pyrrol-2-yl)-N-ethyl-N-methylbenzenesulfonamide], the IC50 was 66.1 nM.
For `CCN(CC)S(=O)(=O)c1ccc(-c2ccc(C#N)n2C)cc1` [Example 8, 4-(5-cyano-1-methyl-1H-pyrrol-2-yl)-N,N-diethylbenzenesulfonamide], the IC50 amounted to 48.4 nM.
As to `Cn1c(C#N)ccc1-c1ccc(S(=O)(=O)NC(C)(C)C)cc1` [Example 9, N-(tert-butyl)-4-(5-cyano-1-methyl-1H-pyrrol-2-yl)benzenesulfonamide], the “Active Dose” value amounted to 10 µM.
On to `Cn1c(C#N)ccc1-c1ccc(S(=O)(=O)N2CCCC2)cc1` [Example 10, 1-methyl-5-[4-(pyrrolidin-1-ylsulfonyl)phenyl]-1H-pyrrole-2-carbonitrile], for which the IC50 amounted to 146 nM.
As to `Cn1c(C#N)ccc1-c1ccc(S(=O)(=O)N2CCCCC2)cc1` [Example 11, 1-methyl-5-[4-(piperidin-1-ylsulfonyl)phenyl]-1H-pyrrole-2-carbonitrile], the IC50 came out at 132 nM.
As to `Cn1c(C#N)ccc1-c1ccc(S(=O)(=O)N2CCOCC2)cc1` [Example 12, 1-methyl-5-[4-(morpholin-4-ylsulfonyl)phenyl]-1H-pyrrole-2-carbonitrile], the IC50 is 189 nM.
For the compound `Cn1c(C#N)ccc1-c1ccc(S(=O)(=O)NC2CCC2)cc1` [Example 13, 4-(5-cyano-1-methyl-1H-pyrrol-2-yl)-N-cyclobutylbenzenesulfonamide], the IC50 was determined as 13.9 nM.
Consider `Cn1c(C#N)ccc1-c1ccc(S(=O)(=O)NC2CC2)cc1` [Example 14, 4-(5-cyano-1-methyl-1H-pyrrol-2-yl)-N-cyclopropylbenzenesulfonamide], for which the IC50 came to 6.6 nM.
On to `Cn1c(C#N)ccc1-c1ccc(S(=O)(=O)NC2CCCCC2)cc1` [Example 15, 4-(5-cyano-1-methyl-1H-pyrrol-2-yl)-N-cyclohexylbenzenesulfonamide], for which the IC50 came to 58.9 nM.
With `Cn1c(C#N)ccc1-c1ccc(S(=O)(=O)NCC(F)(F)F)cc1` [Example 16, 4-(5-cyano-1-methyl-1H-pyrrol-2-yl)-N-(2,2,2-trifluoroethyl)benzenesulfonamide], the IC50 turned out to be 40.8 nM.
Turning to `Cn1c(C#N)ccc1-c1ccc(S(=O)(=O)NCC2CC2)cc1` [Example 17, 4-(5-cyano-1-methyl-1H-pyrrol-2-yl)-N-(cyclopropylmethyl)benzenesulfonamide], the IC50 was found to be 27.6 nM.
As for `Cn1c(C#N)ccc1-c1ccc(S(=O)(=O)n2cccc2)cc1` [Example 18, 1-methyl-5-[4-(1H-pyrrol-1-ylsulfonyl)phenyl]-1H-pyrrole-2-carbonitrile], the 50% inhibitory concentration (IC50) is 48.1 nM.
As for `Cn1c(C#N)ccc1-c1ccc(S(N)(=O)=O)c(C(F)(F)F)c1` [Example 19, 4-(5-cyano-1-methyl-1H-pyrrol-2-yl)-2-(trifluoromethyl)benzenesulfonamide], the IC50 was determined as 35.8 nM.
For the compound `CN(C)S(=O)(=O)c1ccc(-c2ccc(C#N)n2C)cc1C(F)(F)F` [Example 20, 4-(5-cyano-1-methyl-1H-pyrrol-2-yl)-N,N-dimethyl-2-(trifluoromethyl)benzenesulfonamide], the IC50 was determined as 81.9 nM.
On to `CCN(CC)S(=O)(=O)c1ccc(-c2ccc(C#N)n2C)cc1C(F)(F)F` [Example 22, 4-(5-cyano-1-methyl-1H-pyrrol-2-yl)-N,N-diethyl-2-(trifluoromethyl)benzenesulfonamide], for which the IC50 was found to be 80.4 nM.
On the same count and under the same terms, as for `CC(C)NS(=O)(=O)c1ccc(-c2ccc(C#N)n2C)cc1C(F)(F)F` [Example 23, 4-(5-cyano-1-methyl-1H-pyrrol-2-yl)-N-isopropyl-2-(trifluoromethyl)benzenesulfonamide], the figure is 77.1 nM.
As for `CCNS(=O)(=O)c1ccc(-c2ccc(C#N)n2C)cc1C(F)(F)F` [Example 24, 4-(5-cyano-1-methyl-1H-pyrrol-2-yl)-N-ethyl-2-(trifluoromethyl)benzenesulfonamide], the IC50 amounted to 45.8 nM.
On to `CCCNS(=O)(=O)c1ccc(-c2ccc(C#N)n2C)cc1C(F)(F)F` [Example 25, 4-(5-cyano-1-methyl-1H-pyrrol-2-yl)-N-propyl-2-(trifluoromethyl)benzenesulfonamide], for which the IC50 turned out to be 17.3 nM.
Consider `Cn1c(C#N)ccc1-c1ccc(S(=O)(=O)N2CCCC2)c(C(F)(F)F)c1` [Example 26, 1-methyl-5-[4-(pyrrolidin-1-ylsulfonyl)-3-(trifluoromethyl)phenyl]-1H-pyrrole-2-carbonitrile], for which the IC50 is 115 nM.
Consider `Cn1c(C#N)ccc1-c1ccc(S(=O)(=O)NC2CC2)c(C(F)(F)F)c1` [Example 27, 4-(5-cyano-1-methyl-1H-pyrrol-2-yl)-N-cyclopropyl-2-(trifluoromethyl)benzenesulfonamide], for which the IC50 was determined as 38.2 nM.
With `Cn1c(C#N)ccc1-c1ccc(S(=O)(=O)NCC2CC2)c(C(F)(F)F)c1` [Example 28, 4-(5-cyano-1-methyl-1H-pyrrol-2-yl)-N-(cyclopropylmethyl)-2-(trifluoromethyl)benzenesulfonamide], the IC50 is 34.9 nM.
Consider `Cn1c(C#N)ccc1-c1ccc(S(=O)(=O)NC2CCC2)c(C(F)(F)F)c1` [Example 29, 4-(5-cyano-1-methyl-1H-pyrrol-2-yl)-N-cyclobutyl-2-(trifluoromethyl)benzenesulfonamide], for which the concentration for half-maximal inhibition (IC50) was found to be 17 nM.
With `Cn1c(C#N)ccc1-c1ccc(S(N)(=O)=O)cc1F` [Example 30, 4-(5-cyano-1-methyl-1H-pyrrol-2-yl)-3-fluorobenzenesulfonamide], the half-inhibitory concentration (IC50) worked out at 91 nM.
As for `CNS(=O)(=O)c1ccc(-c2ccc(C#N)n2C)c(F)c1` [Example 31, 4-(5-cyano-1-methyl-1H-pyrrol-2-yl)-3-fluoro-N-methylbenzenesulfonamide], the IC50 was 8.5 nM.
`CN(C)S(=O)(=O)c1ccc(-c2ccc(C#N)n2C)c(F)c1` [Example 32, 4-(5-cyano-1-methyl-1H-pyrrol-2-yl)-3-fluoro-N,N-dimethylbenzenesulfonamide]: the IC50 came to 128 nM.
For `CCNS(=O)(=O)c1ccc(-c2ccc(C#N)n2C)c(F)c1` [Example 33, 4-(5-cyano-1-methyl-1H-pyrrol-2-yl)-N-ethyl-3-fluorobenzenesulfonamide], the IC50 was 13.1 nM.
`CCN(CC)S(=O)(=O)c1ccc(-c2ccc(C#N)n2C)c(F)c1` [Example 34, 4-(5-cyano-1-methyl-1H-pyrrol-2-yl)-N,N-diethyl-3-fluorobenzenesulfonamide]: the IC50 was found to be 65.6 nM.
As to `CC(C)NS(=O)(=O)c1ccc(-c2ccc(C#N)n2C)c(F)c1` [Example 35, 4-(5-cyano-1-methyl-1H-pyrrol-2-yl)-3-fluoro-N-isopropylbenzenesulfonamide], the IC50 was determined as 26.8 nM.
Still for that read-out and setting: as for `CCCNS(=O)(=O)c1ccc(-c2ccc(C#N)n2C)c(F)c1` [Example 36, 4-(5-cyano-1-methyl-1H-pyrrol-2-yl)-3-fluoro-N-propylbenzenesulfonamide], the figure is 26.5 nM; as for `Cn1c(C#N)ccc1-c1ccc(S(=O)(=O)N2CCCC2)cc1F` [Example 37, 5-[2-fluoro-4-(pyrrolidin-1-ylsulfonyl)phenyl]-1-methyl-1H-pyrrole-2-carbonitrile], 151 nM.
